Legend:
Format in all cases: cell-based
[1] = tested on: IL-6 secreted from A549 cells; assay: IL-6 secretion from TNFα-treated A549 cells (ELISA); conditions: for IL-6 secretion: at the concentration and ratio found in 10 μg/ml FCBD:std
Procedure: (§1) Cell cultures—The lung cancer cell line A549 (ATCC® CCL-185™) was cultured in DMEM (01-055-1A, Biological Industries, Israel) growth media supplemented with 10% FBS (04-127-1A, Biological Industries, Israel), 1% […], 1% pen-strep and plasmocin. Macrophage cell line KG1 (ATCC® CCL-246™) was cultured in IMDM (01-058-1A; Biological Industries, Israel) containing 20% FBS and 1% pen-strep and plasmocin. IMDM media supplemented with 10 ng/mL PMA, 5% FBS, 1% pen-strep and plasmocin was used as stimulating environment for the differentiation of KG1 cells. Differentiated cells with typical morphology were attached to the plate surface within 1-2 days of initiation^39.
(§2) Determination of IL levels and cell viability—IL-6 and IL-8 levels were determined as described previously^40 with the following modifications: A549 cells were plated at 5×10^4 cells per well in DMEM complete media (400 μL) in a 24-well cell culture plate. Cells were allowed to attach and incubated with complete DMEM at 37° C. in a humidified atmosphere containing 5% CO2-95% air. Following overnight incubation, cells were treated with 300 ng/mL TNFα with or without plant extract or fraction/compounds. IL-6 and IL-8 secretion levels were analyzed after 4 hours of incubation. Supernatant samples were taken and tested using IL-6 and IL-8 ELISA kits (DY206 and DY208 respectively, R&D Systems, Minneapolis, Minn., USA). Dexamethasone was used as a positive control. For cell viability, an Alamar Blue (resazurin) assay was performed on each well as described previously^40. For dose response assays, data points were connected by non-linear regression lines of the sigmoidal dose-response relation. GraphPad Prism (GraphPad Software Inc., San Diego, USA) was employed to produce dose-response curves and IC50 doses were calculated using nonlinear regression analysis.

[2] = tested on: IL-8 secreted from A549 cells; assay: IL-8 secretion from TNFα-treated A549 cells (ELISA); conditions: for IL-8 secretion: at the concentration and ratio found in 10 μg/ml FCBD:std
Procedure: as §1, §2

CD36 = assay: qPCR of CD36 mRNA in PMA-treated KG1 cells; conditions: FCBD and FCBD:std 7 μg/mL, Palmitic acid 150 μM, versus vehicle control
Procedure: as §1
(§3) Quantitative real-time (qRT) PCR—qRT PCR was effected as described^38. Briefly, cells were seeded in a 6-well plate at a concentration of 1.5×10^6 cells in 3 mL per well. Following 24 hours incubation, cells were treated with extract/fraction/compounds for 6 hours. Cells were harvested and RNA was extracted using TRI reagent (T9424, Sigma Aldrich, USA). RNA was reverse-transcribed in a total volume of 20 μL (PB30.11-10; qPCRBIO), according to manufacturer's protocol. PCR was performed in triplicate using qPCR SyGreen Blue Mix (PB20.16-20, qPCRBIO) and a StepOnePlus system (Applied Biosystems). […]

IL-6 = assay: qPCR of IL-6 mRNA in PMA-treated KG1 cells (differentiated macrophages); conditions: 6 hours, FCBD and FCBD:std 7 μg/mL, Dex 8 μg/mL, relative to control
Procedure: as §1, §3

IL-8 = assay: qPCR of IL-8 mRNA in PMA-treated KG1 cells (differentiated macrophages); conditions: 6 hours, FCBD and FCBD:std 7 μg/mL, Dex 8 μg/mL, relative to control
Procedure: as §1, §3

CCL2 = assay: qPCR of CCL2 mRNA in PMA-treated KG1 cells (differentiated macrophages); conditions: 6 hours, FCBD and FCBD:std 7 μg/mL, Dex 8 μg/mL, relative to control
Procedure: as §1, §3

[3] = tested on: IL-8 secreted from KG1 cells; assay: IL-8 secretion from KG1 cells treated with TNFα (ELISA); conditions: 300 ng/mL TNFα, 4 hours, FCBD or FCBD:std 10 μg/mL or indicated concentrations, Dex 4 μg/mL
Procedure: as §1
Determination of IL levels and cell viability—IL-6 and IL-8 levels were determined as described previously^40 with the following modifications: A549 cells were plated at 5×10^4 cells per well in DMEM complete media (400 μL) in a 24-well cell culture plate. Cells were allowed to attach and incubated with complete DMEM at 37° C. in a humidified atmosphere containing 5% CO2-95% air. […] IL-6 and IL-8 secretion levels were analyzed after 4 hours of incubation. […] GraphPad Prism (GraphPad Software Inc., San Diego, USA) was employed to produce dose-response curves and IC50 doses were calculated using nonlinear regression analysis.

[4] = higher or lower concentrations of CBD than 3.0 μg/mL

In the case of `Cc1c(C(=O)NN2CCCCC2)nn(-c2ccc(Cl)cc2Cl)c1-c1ccc(I)cc1` [CB1 IA], the “IL-6 levels, inverse agonist alone” value ([1]; treatment with IA only) is reported as “reduction” and the “IL-8 levels, inverse agonist alone” value ([2]; treatment with IA only) is reported as “reduction”.
`C=C(C)[C@@H]1CCC(C)=C[C@H]1c1c(O)cc(CCCCC)cc1O` [CBD, cannabidiol] was tested, and the “IL-6 levels, anti-inflammatory activity” value ([1]; CBD alone at 3.0 μg/mL) was “showed anti-inflammatory activity”, the IL-6 secretion [1] was “did not lead to such a reduction” and the “activity in reducing IL-6 levels” value [1, 4] was “lower and/or non-significant activity”. The “IL-8 levels, anti-inflammatory activity” value ([2]; CBD alone at 3.0 μg/mL) was “showed anti-inflammatory activity”, the IL-8 secretion [2] was “did not lead to such a reduction” and the “activity in reducing IL-8 levels” value [2, 4] was “lower and/or non-significant activity”.
For `CCCCCc1cc(O)c(C/C=C(\C)CCC=C(C)C)c(O)c1` [CBG, cannabigerol], the IL-6 secretion [1] was “did not lead to such a reduction” and the IL-8 secretion [2] was “did not lead to such a reduction”.
With `CCCCCCCCCCCCCCCC(=O)O` [PA, Palmitic acid] the “mRNA expression of CD36” value (CD36) was “reduced”.
With `CCCc1cc(O)c2c(c1)OC(C)(C)[C@@H]1CCC(C)=C[C@@H]21` [THCV, tetrahydrocannabivarin] the IL-6 secretion [1] was “did not lead to such a reduction” and the IL-8 secretion [2] was “did not lead to such a reduction”.
In the case of `C[C@@H]1C[C@H]2[C@@H]3CCC4=CC(=O)C=C[C@]4(C)[C@@]3(F)[C@@H](O)C[C@]2(C)[C@@]1(O)C(=O)CO` [dexamethasone, Dexamethasone], the “increase of IL-6 mRNA expression level” value (IL-6) is reported as “no effect”, the “increase of IL-8 mRNA expression level” value (IL-8) is reported as “no effect” and the “increase of CCL2 mRNA expression level” value (CCL2) is reported as “no effect”. The “IL-8 secretion from KG1 cells” value [3] was “no effect”.

Source: patent US20230277564A1, “CANNABINOIDAL COMPOSITIONS FOR THE TREATMENT OF DISEASE” (The State of Israel, Ministry of Agriculture & Rural …, priority 2020, published 2023)
